# Results reported in patent US6001882A (priority 1997, dated 1999).
# Several values for one entry are separate records, joined by “and”; a condition that tells them apart may be missing. Equal entries are not always repeated. Where two headings read alike, the source gives them in different places.
# How the values were obtained:
# [1] = test system: PBMC obtained from a subject having CTCL; assay: Induction of apoptosis in CTCL PBMC, TUNEL assay (Example 3); format: cell-based, human; conditions: for percentage of PBMC which underwent apoptosis: CTCL, 18 h; for capability of inducing apoptosis: malignant leukocytes
# [2] = test system: PBMC obtained from a normal human subject; assay: Induction of apoptosis in normal PBMC, TUNEL assay (Example 3); format: cell-based; conditions: for percentage of PBMC which underwent apoptosis: Normal, 18 h
# transformed ("EBV") PBMC = assay: Lymphocyte proliferation (3H-TdR incorporation), EBV-transformed PBMC; format: cell-based, human; conditions: for IC50: read-out: IC50 of cell proliferation
# Source text: (§1) In two of the types of lymphocytes, the mitogen, ConA, was used to induce proliferation, as described (Fox et al., 1993, Cell. Immunol. 150:45-58). The third type of lymphocytes used in this example proliferated actively in vitro without the need for mitogenic stimulation. The three types of lymphocytes which were used in this example were: PBMC obtained from a normal human subject and stimulated with ConA; PBMC, including malignant CD4+ T-lymphocytes, obtained from a human subject having CTCL and stimulated with ConA; and PBMC obtained from a normal human subject, which PBMC were exposed to Epstein-Barr virus (EBV) after being obtained from the subject, to produce transformed lymphocytes. It is known that EBV-transformed B-lymphocytes proliferate actively in vitro (Polack, 1996, Proc. Natl. Acad. Sci. U.S.A. 93:10411-10416; Longnecker, 1994, Leukemia 8:546-550).
# (§2) Peripheral blood mononuclear cells (PBMC) were obtained by separating them from whole blood, using Ficoll-Paque separation techniques and media (Boyum, 1964, Nature 793-794). After they were obtained, PBMC were resuspended in RPMI 1640 medium, which comprised 10% (v/v) fetal bovine serum (GIBCO, Grand Island, N.Y.), and were distributed into the wells of 96-well microtiter plates. PBMC transformed using EBV were made as described (Neitzel, 1986, Hum. Gen. 73:320-326)
# (§3) This stock solution stored at 4° C. in the dark. A stock solution comprising 462.5 μM 8-methoxypsoralen (8-MOP) was prepared in 2% (v/v) benzyl alcohol. 8-MOP was obtained from Sigma (St. Louis, Mo.).
# (§4) In cultures of transformed leukocytes in which 8-MOP was used, the concentrations of 8-MOP which were used were 92.5 μM, 18.5 μM, 3.7 μM, 0.74 μM, 0.15 μM, and 0.030 μM. Thereafter, ConA was then added to preselected wells to achieve a final concentration of 10 μg/ml of ConA in those wells.
# (§5) Following preparation of the microtiter culture plates, preselected plates were illuminated with fluorescent visible light for 10-30 minutes, using four fluorescent bulbs (type F15T8CW, TFC Inc., Taiwan) spaced at a distance of 9 cm above the plates. Other preselected plates were illuminated with 0.5-2 Joules per square centimeter UV-A light using a UV-A light box containing 8 UVAR 06-91 bulbs. Still other preselected plates were not exposed to light. The covers of plates which were exposed to light were left in place during illumination.
# (§6) Following illumination, plates which had been illuminated were placed into a dark incubator which was maintained at 37° C. Non-illuminated plates were placed into the incubator immediately after preparation. All plates were incubated for seventy-two hours. During the final eighteen hours of incubation, tritiated thymidine (^3 H-TdR) was added to each well of each plate. No extraordinary precautions were used to prevent light exposure during the addition of ^3 H-TdR.
# (§7) Lymphocyte proliferation was assessed by measuring the extent of incorporation of ^3 H-TdR into newly synthesized DNA within the cells at the end of the seventy-two hour incubation period, as described (Fox, 1993, Cell. Immunol. 150:45-58).
# [3] = test system: PBMC obtained from a patient having CTCL; assay: Induction of apoptosis of CTCL PBMC, TUNEL assay (Example 2); format: cell-based, human; conditions: for percentage of PBMC which underwent apoptosis: 10 μM hypericin or 100 ng/ml 8-MOP
# Procedure: The processing of neoplastic leukocytes, the media and stock solutions used, and the procedures which were used were the same as those presented in Example 1, except as described below.
# Cultures were illuminated using fluorescent light for 20 minutes, illuminated with 2 J/cm^2 UV-A light or were not illuminated. After 24 and 48 hours, apoptosis was measured using a TUNEL assay, as described (Sgonc, 1994 Trends Gen. 10:41-42). The TUNEL assay specifically labels free ends of internucleosomally-cleaved DNA--the hallmark of the apoptotic process.
# neoplastic ("CTL") PBMC = assay: Lymphocyte proliferation (3H-TdR incorporation), ConA-stimulated neoplastic PBMC from subject having CTCL; format: cell-based, human; conditions: for IC50: read-out: IC50 of ConA-induced cell proliferation
# Source text: as §1, §2, §3, §4, §5, §6, §7
# [4] = Homo sapiens, PBMC, 10 min, visible light, 10 min
# [5] = Homo sapiens, PBMC, 20 min, visible light, 20 min
# [6] = Homo sapiens, PBMC, UV-A, 0.5 J/sc
# [7] = Homo sapiens, PBMC, UV-A, 1 J/sc
compound,measurement,setting,value
"Cc1cc(O)c2c(=O)c3c(O)cc(O)c4c5c(O)cc(O)c6c(=O)c7c(O)cc(C)c8c1c2c(c34)c(c78)c65 [hypericin, 1,3,4,6,8,13-Hexahydroxy-10,11,dimethyl-phenanthro[1,10,9,8,-opqra]perylene-7,14-dione]",percentage of PBMC which underwent apoptosis,"[1]; 1 μM, UV-A 2 J/cm^2",26.1 percentage
same,percentage of PBMC which underwent apoptosis,"[1]; 1 μM, no light",2.6 percentage
same,percentage of PBMC which underwent apoptosis,"[1]; 1 μM, visible light 20 min",17.2 percentage
same,percentage of PBMC which underwent apoptosis,"[1]; 10 μM, UV-A 2 J/cm^2",94.4 percentage
same,percentage of PBMC which underwent apoptosis,"[1]; 10 μM, no light",2.8 percentage
same,percentage of PBMC which underwent apoptosis,"[1]; 10 μM, visible light 20 min",94.3 percentage
same,capability of inducing apoptosis,[1]; UV-A light,capable of inducing apoptosis in malignant leukocytes
same,capability of inducing apoptosis,[1]; visible light,capable of inducing apoptosis in both normal and malignant leukocytes
same,percentage of PBMC which underwent apoptosis,"[2]; 1 μM, UV-A 2 J/cm^2",21.2 percentage
same,percentage of PBMC which underwent apoptosis,"[2]; 1 μM, no light",4.8 percentage
same,percentage of PBMC which underwent apoptosis,"[2]; 1 μM, visible light 20 min",18.2 percentage
same,percentage of PBMC which underwent apoptosis,"[2]; 10 μM, UV-A 2 J/cm^2",37.3 percentage
same,percentage of PBMC which underwent apoptosis,"[2]; 10 μM, no light",5.4 percentage
same,percentage of PBMC which underwent apoptosis,"[2]; 10 μM, visible light 20 min",87.9 percentage
same,capability of inducing apoptosis,"[2]; normal leukocytes, visible light",capable of inducing apoptosis in both normal and malignant leukocytes
same,IC50,"transformed (""EBV"") PBMC; [4]",3200 nM
same,IC50,"transformed (""EBV"") PBMC; [5]",1800 nM
same,IC50,"transformed (""EBV"") PBMC; Homo sapiens, PBMC, 0.5 h, visible light, 30 min",750 nM
same,IC100,"transformed (""EBV"") PBMC; Homo sapiens, PBMC, 72 h, visible light, 30 min, read-out: concentration at which proliferation was completely inhibited",3.2 µM
same,IC50,"transformed (""EBV"") PBMC; [6]",3700 nM
same,IC50,"transformed (""EBV"") PBMC; [7]",2100 nM
same,IC50,"transformed (""EBV"") PBMC; Homo sapiens, PBMC, UV-A, 2 J/sc",2000 nM
same,IC50,"transformed (""EBV"") PBMC; Homo sapiens, PBMC, not illuminated",36000 nM
same,"ability to inhibit proliferation, 2 vs 1 J/cm^2","transformed (""EBV"") PBMC; UV-A 2 J/cm^2 relative to 1 J/cm^2",essentially the same
same,effect of UV-A on ability to inhibit proliferation,"transformed (""EBV"") PBMC; UV-A vs none",enhanced significantly upon illumination using UV-A light
same,effect of visible light on ability to inhibit proliferation,"transformed (""EBV"") PBMC; visible light vs none",enhanced significantly upon illumination using visible light
same,inhibition of proliferation after 30 min illumination,"transformed (""EBV"") PBMC; visible light, 30 vs 10 or 20 min",greater than that which resulted from illumination for a period of 10 or 20 minutes
same,percentage of PBMC which underwent apoptosis,"[3]; 24 h, UV-A 2 J/cm^2",88 percentage
same,percentage of PBMC which underwent apoptosis,"[3]; 24 h, no light",11.5 percentage
same,percentage of PBMC which underwent apoptosis,"[3]; 24 h, visible light 20 min",97 percentage
same,percentage of PBMC which underwent apoptosis,"[3]; 48 h, UV-A 2 J/cm^2",96 percentage
same,percentage of PBMC which underwent apoptosis,"[3]; 48 h, no light",18 percentage
same,percentage of PBMC which underwent apoptosis,"[3]; 48 h, visible light 20 min",91 percentage
same,"potency as inducer of apoptosis, hypericin vs 8-MOP",[3]; UV-A light,approximately equally potent inducers of apoptosis of malignant leukocytes
same,"potency as inducer of apoptosis, hypericin vs 8-MOP",[3]; visible light,much more potent inducer of apoptosis of malignant leukocytes than 8-MOP
same,IC50,"neoplastic (""CTL"") PBMC; [4]",400 nM
same,IC50,"neoplastic (""CTL"") PBMC; [5]",340 nM
same,IC100,"neoplastic (""CTL"") PBMC; Homo sapiens, PBMC, 72 h, visible light, 20 min, read-out: concentration at which proliferation was completely inhibited",3.2 µM
same,IC50,"neoplastic (""CTL"") PBMC; [6]",1800 nM
same,IC50,"neoplastic (""CTL"") PBMC; [7]",570 nM
same,inhibition of mitogen-induced proliferation,"neoplastic (""CTL"") PBMC; malignant PBMC",inhibits mitogen-induced proliferation of PBMC
same,IC50,"neoplastic (""CTL"") PBMC; visible light, 20 min",530 nM and 300 nM
